Laboratory results: patent publication US20200024278A1, “COMPOSITION COMPRISING ANTIBIOTIC COMPOUND AND AN HETEROCYCLIC COMPOUND AND THEIR USE IN PREVENTING OR TREATING BACTERIAL INFECTIONS” (MUTABILIS, priority 2016, published 2020)
Read-outs that look alike come from different tables or passages of the source.

Assays:
Experiment in all cases: MIC, broth microdilution (CLSI), substance alone or ATB combined with compound at 4 or 8 μg/mL
[1] = test system: ABA 19606; format: cell-based, A. baumannii
Description: (§1) Compounds of the present invention were assessed against genotyped bacterial strains alone or in combination with an antibacterial. In the assays, MICs of said compounds or combination of antibiotics with fixed concentrations of said compounds (4 or 8 μg/mL) were determined by the broth microdilution method according to the Clinical Laboratory Standards Institute (CLSI-M7-A7). Briefly, compounds alone according to the invention were prepared in DMSO and spotted (2 μL each) on sterile polystyrene plates (Corning, 3788). Combinations of compounds and antibiotics dilutions were prepared in DMSO and spotted (1 μL each) on sterile polystyrene plates (Corning, 3788). Log phase bacterial suspensions were adjusted to a final density of 5·10^5 CFU/mL in cation-adjusted Mueller-Hinton broth (ca-MHB; Becton-Dickinson and Company) and added to each well (98 μL). Assays including Fosfomycin were supplemented with 25 μg/ml of Glucose-6-phosphate. Microplates were incubated for 16-20 h at 35° C. in ambient air. The MIC of the compounds was defined as the lowest concentration of said compounds that prevented bacterial growth as read by visual inspection. The MIC of ATB at each compound concentration was defined as the lowest concentration of ATB that prevented bacterial growth as read by visual inspection.

[2] = test system: ABA UFR156; format: cell-based, A. baumannii
Description: as §1

[3] = test system: ABA UFR158; format: cell-based, A. baumannii; conditions: with Example 6 @8 μg/ml
Description: as §1

[4] = test system: ABA UFR157; format: cell-based, A. baumannii
Description: as §1

[5] = test system: ABA UFR153; format: cell-based, A. baumannii
Description: as §1

[6] = test system: ABA UFR151; format: cell-based, A. baumannii
Description: as §1

[7] = test system: ABA UFR160; format: cell-based, A. baumannii; conditions: with Example 6 @8 μg/ml
Description: as §1

[8] = test system: ABA UFR154; format: cell-based, A. baumannii
Description: as §1

[9] = test system: ABA UFR152; format: cell-based, A. baumannii
Description: as §1

[10] = test system: ABA UFR155; format: cell-based, A. baumannii
Description: as §1

[11] = test system: ECO 190317; format: cell-based, E. coli; conditions: Escherichia coli, ECO 190317
Outline: (§2)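 Potentiation format: antibiotic dilution series run with test compound held at 4 or 8 μg/mL, alongside compound-alone MICs. Broth microdilution per CLSI in ca-MHB, 16-20 h at 35° C.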

[12] = test system: ECO UFR39; format: cell-based, E. coli; conditions: Escherichia coli, ECO UFR39
Outline: as §2

[13] = test system: PAE 105250; format: cell-based, P. aeruginosa; conditions: Pseudomonas aeruginosa, PAE 105250
Outline: as §2

[14] = test system: PAE UFR48; format: cell-based, P. aeruginosa; conditions: Pseudomonas aeruginosa, PAE UFR48
Outline: as §2

[15] = test system: PAE UFR90; format: cell-based, P. aeruginosa; conditions: Pseudomonas aeruginosa, PAE UFR90
Outline: as §2

[16] = test system: ECL P99; format: cell-based, E. cloacae; conditions: Enterobacter cloacae, ECL P99
Outline: as §2

[17] = test system: SAU 29213; format: cell-based, S. aureus; conditions: Staphylococcus aureus
Outline: as §2

[18] = test system: KPN 6299; format: cell-based, K. pneumoniae; conditions: Klebsiella pneumoniae
Outline: as §2

[19] = test system: KPN UFR68; format: cell-based, K. pneumoniae; conditions: Klebsiella pneumoniae, substance alone
Outline: as §2

[20] = test system: SPN 49619; format: cell-based, S. pneumoniae; conditions: Streptococcus pneumoniae, SPN 49619
Outline: as §2

[21] = Acinetobacter baumannii, antibiotic alone, read-out: MIC ATB alone
[22] = antibiotic alone, read-out: MIC ATB alone

C[C@@H](O)[C@H]1C(=O)N2C(C(=O)O)=C(S[C@@H]3CN[C@H](C(=O)N(C)C)C3)[C@H](C)[C@H]12 [MEM, Meropenem]
MIC [1, 21]: 1 µg/mL
MIC ATB combined with Example 1 @8 μg/ml ([1]; with Example 1 @8 μg/ml): 1 µg/mL
MIC ATB combined with Example 3 @8 μg/ml ([1]; with Example 3 @8 μg/ml): <=0.25 μg/mL
MIC ATB combined with Example 6 @8 μg/ml ([1]; with Example 6 @8 μg/ml): <=0.25 μg/mL
MIC ATB combined with Example 9 @4 μg/ml ([1]; with Example 9 @4 μg/ml): 2 µg/mL
MIC ATB combined with Example 10 @8 μg/ml ([1]; with Example 10 @8 μg/ml): <=0.25 μg/mL
MIC ATB combined with Example 11 @8 μg/ml ([1]; with Example 11 @8 μg/ml): 0.5 µg/mL
MIC ATB combined with Example 12 @8 μg/ml ([1]; with Example 12 @8 μg/ml): <=0.25 μg/mL
MIC ATB combined with Example 15 @4 μg/ml ([1]; with Example 15 @4 μg/ml): 0.5 µg/mL
MIC [2, 21]: 64 µg/mL
MIC ATB combined with Example 1 @8 μg/ml ([2]; with Example 1 @8 μg/ml): 64 µg/mL
MIC ATB combined with Example 3 @8 μg/ml ([2]; with Example 3 @8 μg/ml): 8 µg/mL
MIC ATB combined with Example 6 @8 μg/ml ([2]; with Example 6 @8 μg/ml): 16 µg/mL
MIC ATB combined with Example 9 @4 μg/ml ([2]; with Example 9 @4 μg/ml): 64 µg/mL
MIC ATB combined with Example 10 @8 μg/ml ([2]; with Example 10 @8 μg/ml): 8 µg/mL
MIC ATB combined with Example 11 @8 μg/ml ([2]; with Example 11 @8 μg/ml): 64 µg/mL
MIC ATB combined with Example 12 @8 μg/ml ([2]; with Example 12 @8 μg/ml): 32 µg/mL
MIC ATB combined with Example 15 @4 μg/ml ([2]; with Example 15 @4 μg/ml): 64 µg/mL
MIC ATB combined with Example 6 @8 μg/ml [3]: <0.25 µg/mL
MIC [4, 21]: 32 µg/mL
MIC ATB combined with Example 1 @8 μg/ml ([4]; with Example 1 @8 μg/ml): 1 µg/mL
MIC ATB combined with Example 3 @8 μg/ml ([4]; with Example 3 @8 μg/ml): <=0.25 μg/mL
MIC ATB combined with Example 6 @8 μg/ml ([4]; with Example 6 @8 μg/ml): <=0.25 μg/mL
MIC ATB combined with Example 9 @4 μg/ml ([4]; with Example 9 @4 μg/ml): 1 µg/mL
MIC ATB combined with Example 10 @8 μg/ml ([4]; with Example 10 @8 μg/ml): 0.5 µg/mL
MIC ATB combined with Example 11 @8 μg/ml ([4]; with Example 11 @8 μg/ml): 0.5 µg/mL
MIC ATB combined with Example 12 @8 μg/ml ([4]; with Example 12 @8 μg/ml): <=0.25 μg/mL
MIC ATB combined with Example 15 @4 μg/ml ([4]; with Example 15 @4 μg/ml): 0.5 µg/mL
MIC [5, 21]: 1 µg/mL
MIC ATB combined with Example 1 @8 μg/ml ([5]; with Example 1 @8 μg/ml): 1 µg/mL
MIC ATB combined with Example 3 @8 μg/ml ([5]; with Example 3 @8 μg/ml): <=0.25 μg/mL
MIC ATB combined with Example 6 @8 μg/ml ([5]; with Example 6 @8 μg/ml): <0.25 µg/mL
MIC ATB combined with Example 9 @4 μg/ml ([5]; with Example 9 @4 μg/ml): <=0.25 μg/mL
MIC ATB combined with Example 10 @8 μg/ml ([5]; with Example 10 @8 μg/ml): <=0.25 μg/mL
MIC ATB combined with Example 11 @8 μg/ml ([5]; with Example 11 @8 μg/ml): 1 µg/mL
MIC ATB combined with Example 12 @8 μg/ml ([5]; with Example 12 @8 μg/ml): <=0.25 μg/mL
MIC ATB combined with Example 15 @4 μg/ml ([5]; with Example 15 @4 μg/ml): <=0.25 μg/mL
MIC [6, 21]: 0.5 µg/mL
MIC ATB combined with Example 1 @8 μg/ml ([6]; with Example 1 @8 μg/ml): <=0.25 μg/mL
MIC ATB combined with Example 3 @8 μg/ml ([6]; with Example 3 @8 μg/ml): <=0.25 μg/mL
MIC ATB combined with Example 6 @8 μg/ml ([6]; with Example 6 @8 μg/ml): <=0.25 μg/mL
MIC ATB combined with Example 9 @4 μg/ml ([6]; with Example 9 @4 μg/ml): <=0.25 μg/mL
MIC ATB combined with Example 10 @8 μg/ml ([6]; with Example 10 @8 μg/ml): <=0.25 μg/mL
MIC ATB combined with Example 11 @8 μg/ml ([6]; with Example 11 @8 μg/ml): 0.5 µg/mL
MIC ATB combined with Example 12 @8 μg/ml ([6]; with Example 12 @8 μg/ml): <=0.25 μg/mL
MIC ATB combined with Example 15 @4 μg/ml ([6]; with Example 15 @4 μg/ml): 0.5 µg/mL
MIC ATB combined with Example 6 @8 μg/ml [7]: <0.25 µg/mL
MIC [8, 21]: 1 µg/mL
MIC ATB combined with Example 1 @8 μg/ml ([8]; with Example 1 @8 μg/ml): 0.5 µg/mL
MIC ATB combined with Example 3 @8 μg/ml ([8]; with Example 3 @8 μg/ml): <=0.25 μg/mL
MIC ATB combined with Example 6 @8 μg/ml ([8]; with Example 6 @8 μg/ml): 0.5 µg/mL
MIC ATB combined with Example 9 @4 μg/ml ([8]; with Example 9 @4 μg/ml): 0.5 µg/mL
MIC ATB combined with Example 10 @8 μg/ml ([8]; with Example 10 @8 μg/ml): <=0.25 μg/mL
MIC ATB combined with Example 11 @8 μg/ml ([8]; with Example 11 @8 μg/ml): 1 µg/mL
MIC ATB combined with Example 12 @8 μg/ml ([8]; with Example 12 @8 μg/ml): <=0.25 μg/mL
MIC ATB combined with Example 15 @4 μg/ml ([8]; with Example 15 @4 μg/ml): 0.5 µg/mL
MIC [9, 21]: 2 µg/mL
MIC ATB combined with Example 1 @8 μg/ml ([9]; with Example 1 @8 μg/ml): 4 µg/mL
MIC ATB combined with Example 3 @8 μg/ml ([9]; with Example 3 @8 μg/ml): 1 µg/mL
MIC ATB combined with Example 6 @8 μg/ml ([9]; with Example 6 @8 μg/ml): 2 µg/mL
MIC ATB combined with Example 9 @4 μg/ml ([9]; with Example 9 @4 μg/ml): 1 µg/mL
MIC ATB combined with Example 10 @8 μg/ml ([9]; with Example 10 @8 μg/ml): 1 µg/mL
MIC ATB combined with Example 11 @8 μg/ml ([9]; with Example 11 @8 μg/ml): 1 µg/mL
MIC ATB combined with Example 12 @8 μg/ml ([9]; with Example 12 @8 μg/ml): 1 µg/mL
MIC ATB combined with Example 15 @4 μg/ml ([9]; with Example 15 @4 μg/ml): 1 µg/mL
MIC [10, 21]: 32 µg/mL
MIC ATB combined with Example 1 @8 μg/ml ([10]; with Example 1 @8 μg/ml): 16 µg/mL
MIC ATB combined with Example 3 @8 μg/ml ([10]; with Example 3 @8 μg/ml): 8 µg/mL
MIC ATB combined with Example 6 @8 μg/ml ([10]; with Example 6 @8 μg/ml): 16 µg/mL
MIC ATB combined with Example 9 @4 μg/ml ([10]; with Example 9 @4 μg/ml): 16 µg/mL
MIC ATB combined with Example 10 @8 μg/ml ([10]; with Example 10 @8 μg/ml): 8 µg/mL
MIC ATB combined with Example 11 @8 μg/ml ([10]; with Example 11 @8 μg/ml): 16 µg/mL
MIC ATB combined with Example 12 @8 μg/ml ([10]; with Example 12 @8 μg/ml): 16 µg/mL
MIC ATB combined with Example 15 @4 μg/ml ([10]; with Example 15 @4 μg/ml): 64 µg/mL
MIC [11, 22]: 0.031 µg/mL
MIC ([11]; substance alone, read-out: MIC): 0.031 µg/mL
MIC [12, 22]: 64 µg/mL
MIC ([12]; substance alone, read-out: MIC): 64 µg/mL
MIC [13, 22]: 4 µg/mL
MIC ([13]; substance alone, read-out: MIC): 4 µg/mL
MIC [14, 22]: 4 µg/mL
MIC ([14]; substance alone, read-out: MIC): 4 µg/mL
MIC [15, 22]: 2 µg/mL
MIC ([15]; substance alone, read-out: MIC): 2 µg/mL
MIC [16, 22]: 0.063 µg/mL
MIC ([16]; substance alone, read-out: MIC): 0.063 µg/mL
MIC ([17]; MSSA): 0.125 µg/mL
MIC ([17]; antibiotic alone, SAU 29213, read-out: MIC ATB alone): 0.125 µg/mL
MIC [18, 22]: 1 µg/mL
MIC ([18]; substance alone, read-out: MIC): 1 µg/mL
MIC [19]: 32 µg/mL
MIC [20, 22]: 0.063 µg/mL
MIC ([20]; substance alone, read-out: MIC): 0.063 µg/mL
